We go through 7 molecules from patent US8563545B2, “Compound useful for the treatment of degenerative and inflammatory diseases” (Galapagos NV, priority 2009, dated 2013).

In one assay the target is JAK1 (Homo sapiens (Human), UniProt P23458). The assay is described as follows: JAK1 inhibition assay. Format: biochemical. Here is the method:
(§1) Plates were washed 6 times with 300 μL per well of a 75 mM phosphoric acid solution and the bottom of the plates was sealed. 40 μL/well of Microscint-20 was added, the top of the plates was sealed and readout was performed using the Topcount (Perkin Elmer). Kinase activity was calculated by subtracting counts per minute (cpm) obtained in the presence of a positive control inhibitor (10 μM staurosporine) from cpm obtained in the presence of vehicle. The ability of a test compound to inhibit this activity was determined as:
(§2) Percentage inhibition=((cpm determined for sample with test compound present−cpm determined for sample with positive control inhibitor)divided by(cpm determined in the presence of vehicle−cpm determined for sample with positive control inhibitor))*100.
Dose dilution series were prepared for the compounds enabling the testing of dose-response effects in the JAK1 assay and the calculation of the IC50 for each compound.

In a further assay the target is JAK2 (Homo sapiens (Human), UniProt O60674). Kind of assay: JAK2 inhibition assay. Format: biochemical. The protocol: as §1, with “After 90 min at 30° C., reactions were stopped by adding of 25 μL/well of 150 mM phosphoric acid. […] Plates” for “Plates”
JAK2, sequence (O60674 808-1132): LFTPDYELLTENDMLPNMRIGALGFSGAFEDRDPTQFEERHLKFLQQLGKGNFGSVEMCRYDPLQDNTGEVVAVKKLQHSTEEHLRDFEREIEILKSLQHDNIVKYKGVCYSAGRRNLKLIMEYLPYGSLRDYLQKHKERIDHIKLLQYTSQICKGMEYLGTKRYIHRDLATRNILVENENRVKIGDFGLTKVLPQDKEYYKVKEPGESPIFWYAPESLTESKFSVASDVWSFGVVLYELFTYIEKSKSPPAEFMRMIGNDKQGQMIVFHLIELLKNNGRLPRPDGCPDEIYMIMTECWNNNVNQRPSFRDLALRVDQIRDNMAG
as §2
Dose dilution series were prepared for the compounds enabling the testing of dose-response effects in the JAK2 assay and the calculation of the IC50 for each compound.

Where “and” joins values, the source holds several entries; their conditions need not be identical. Identical values can stand only once.

JAK1, sequence (P23458 850-1154): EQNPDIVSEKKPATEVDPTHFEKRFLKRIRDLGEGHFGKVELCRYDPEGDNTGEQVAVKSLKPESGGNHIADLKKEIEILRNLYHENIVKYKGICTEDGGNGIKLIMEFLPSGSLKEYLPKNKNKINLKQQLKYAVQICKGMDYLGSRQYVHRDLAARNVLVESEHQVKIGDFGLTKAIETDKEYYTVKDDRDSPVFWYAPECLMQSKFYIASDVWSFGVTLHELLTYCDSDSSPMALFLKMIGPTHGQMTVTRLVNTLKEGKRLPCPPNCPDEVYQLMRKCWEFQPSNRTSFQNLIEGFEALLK

For orientation: IC50 means the concentration at which inhibition is half-maximal. A low value points to greater potency in that assay. As to `O=C(Nc1nc2cccc(-c3cccc(CN4CCOCC4)c3)n2n1)C1CC1` [Compound 3, N-(5-(3-(morpholinomethyl)phenyl)-[1,2,4]triazolo[1,5-a]pyridin-2-yl)cyclopropanecarboxamide], the 50% inhibitory concentration (IC50) at JAK1 was determined as 291 nM. On JAK1, `O=C(Nc1nc2cccc(-c3ccc(N4CCOCC4)nc3)n2n1)C1CC1` [Compound 4, N-(5-(6-morpholinopyridin-3-yl)-[1,2,4]triazolo[1,5-a]pyridin-2-yl)cyclopropanecarboxamide] gave an IC50 of 1030 nM.

As to `O=C(Nc1nc2cccc(-c3ccc(N4CCOCC4)cc3)n2n1)C1CC1` [Compound 5, N-(5-(4-morpholinophenyl)-[1,2,4]triazolo[1,5-a]pyridin-2-yl)cyclopropanecarboxamide], the half-maximal inhibitory concentration (IC50) against JAK2 was determined as 1760 nM; on JAK1, 1450 nM.

Consider `CN1CCN(Cc2ccc(-c3cccc4nc(NC(=O)C5CC5)nn34)cc2)CC1` [Compound 6, N-(5-(4-((4-methylpiperazin-1-yl)methyl)phenyl)-[1,2,4]triazolo [1,5-a]pyridin-2-yl) cyclopropanecarboxamide], for which the concentration for half-maximal inhibition (IC50) at JAK2 was found to be 5070 nM; at JAK1, 3450 nM. For `O=C(Nc1nc2cccc(-c3ccc(CN4CCCCC4)cc3)n2n1)C1CC1` [Compound 7, N-(5-(4-(piperidin-1-ylmethyl)phenyl)-[1,2,4]triazolo[1,5-a]pyridin-2-yl)cyclopropanecarboxamide], the values for the IC50 against JAK2 and against JAK1 were 6450 nM and 504 nM, respectively. On to `NC(=O)C1CCN(Cc2ccc(-c3cccc4nc(NC(=O)C5CC5)nn34)cc2)CC1` [Compound 8], for which the IC50 against JAK2 is 7730 nM and 1360 nM; against JAK1 it was 435 nM. Consider `CC(=O)N1CCN(Cc2ccc(-c3cccc4nc(NC(=O)C5CC5)nn34)cc2)CC1` [Compound 9, N-(5-(4-((4-acetoylpiperazin-1-yl)methyl)phenyl)-[1,2,4]triazolo[1,5-a]pyridin-2-yl)cyclopropanecarboxamide], for which the concentration for half-maximal inhibition (IC50) at JAK2 is 849 nM; against JAK1, 334 nM.
